Data from patent US10030020B2, “Spirocycle compounds and methods of making and using same” (Abide Therapeutics, Inc., priority 2016, dated 2018).

Experiments:
Assay type in all cases: biochemical
[1] = biological target: FAAH (Mus musculus (Mouse), UniProt O08914); test: In vitro competitive activity-based protein profiling (mouse brain membrane fraction or cell lysates), FAAH band; conditions: mouse proteome; for inhibition at 1 µM: read-out: FAAH % Inh 1 μM (mouse); for IC50: competitive ABPP
Experimental: (§1) In Vitro Competitive Activity-Based Protein Profiling.
(§2) Proteomes (mouse brain membrane fraction or cell lysates) (50 μL, 1.0 mg/mL total protein concentration) were preincubated with varying concentrations of inhibitors at 37° C. After 30 min, FP—Rh (1.0 μL, 50 μM in DMSO) was added and the mixture was incubated for another 30 min at 37° C. Reactions were quenched with SDS loading buffer (50 μL-4×) and run on SDS-PAGE. Following gel imaging, serine hydrolase activity was determined by measuring fluorescent intensity of gel bands corresponding to MAGL, ABHD6 and FAAH using ImageJ 1.43u software.

[2] = biological target: MAGL (Mus musculus (Mouse), UniProt O35678); test: In vitro competitive activity-based protein profiling (mouse brain membrane fraction or cell lysates), MAGL band; conditions: mouse proteome; for inhibition at 1 µM: read-out: MAGL % Inh 1 μM (mouse); for IC50: competitive ABPP
Experimental: as §1
Proteomes (mouse brain membrane fraction or cell lysates) (50 μL, 1.0 mg/mL total protein concentration) were preincubated with varying concentrations of inhibitors at 37° C. After 30 min, FP—Rh (1.0 μL, 50 μM in DMSO) was added and the mixture was incubated for another 30 min at 37° C. Reactions were quenched with SDS loading buffer (50 μL-4×) and run on SDS-PAGE.

[3] = biological target: ABHD6 (Mus musculus (Mouse), UniProt Q8R2Y0); test: In vitro competitive activity-based protein profiling (mouse brain membrane fraction or cell lysates), ABHD6 band; conditions: mouse proteome; for inhibition at 1 µM: read-out: ABHD6 % Inh 1 μM (mouse); for IC50: competitive ABPP
Experimental: as §1, §2

Sequence of FAAH (O08914 whole entry): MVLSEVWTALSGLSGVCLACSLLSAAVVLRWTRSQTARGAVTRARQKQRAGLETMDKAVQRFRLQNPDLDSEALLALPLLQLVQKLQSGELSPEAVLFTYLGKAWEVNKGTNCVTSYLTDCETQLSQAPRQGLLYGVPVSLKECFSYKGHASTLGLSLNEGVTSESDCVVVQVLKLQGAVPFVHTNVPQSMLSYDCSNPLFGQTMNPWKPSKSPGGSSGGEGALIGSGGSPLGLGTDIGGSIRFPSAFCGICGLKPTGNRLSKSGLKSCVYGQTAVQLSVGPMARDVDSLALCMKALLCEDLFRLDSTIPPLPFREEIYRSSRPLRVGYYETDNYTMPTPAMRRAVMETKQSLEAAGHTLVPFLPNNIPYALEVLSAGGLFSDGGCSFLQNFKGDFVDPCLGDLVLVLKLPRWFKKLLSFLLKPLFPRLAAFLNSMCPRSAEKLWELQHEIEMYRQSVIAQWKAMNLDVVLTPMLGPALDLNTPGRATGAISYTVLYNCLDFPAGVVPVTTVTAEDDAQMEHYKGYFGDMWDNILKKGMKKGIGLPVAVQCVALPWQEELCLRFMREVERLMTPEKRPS
Sequence of ABHD6 (Q8R2Y0 whole entry): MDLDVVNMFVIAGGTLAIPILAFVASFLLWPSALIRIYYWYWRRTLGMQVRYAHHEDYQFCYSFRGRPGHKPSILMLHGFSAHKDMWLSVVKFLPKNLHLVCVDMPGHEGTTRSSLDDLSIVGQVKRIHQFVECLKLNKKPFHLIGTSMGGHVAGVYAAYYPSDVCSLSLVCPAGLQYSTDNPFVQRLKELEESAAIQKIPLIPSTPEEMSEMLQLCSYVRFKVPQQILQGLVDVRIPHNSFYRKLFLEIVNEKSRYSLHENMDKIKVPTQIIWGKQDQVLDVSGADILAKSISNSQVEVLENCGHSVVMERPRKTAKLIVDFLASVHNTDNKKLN
Sequence of MAGL (O35678 whole entry): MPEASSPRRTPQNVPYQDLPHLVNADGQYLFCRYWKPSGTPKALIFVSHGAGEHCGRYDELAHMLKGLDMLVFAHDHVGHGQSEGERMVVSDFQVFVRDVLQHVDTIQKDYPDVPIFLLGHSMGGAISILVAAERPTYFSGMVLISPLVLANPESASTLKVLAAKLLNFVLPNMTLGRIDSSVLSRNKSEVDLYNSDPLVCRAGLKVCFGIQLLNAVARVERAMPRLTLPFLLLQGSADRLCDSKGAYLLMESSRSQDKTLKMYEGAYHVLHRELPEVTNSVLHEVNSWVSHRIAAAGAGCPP

Row | SMILES | inhibition at 1 µM [1] | IC50 [1] | inhibition at 1 µM [2] | IC50 [2] | inhibition at 1 µM [3] | IC50 [3]
1 | CC1(C)CC2(CCN(C(=O)OC(C(F)(F)F)C(F)(F)F)CC2)CN1Cc1c(N2CCC3(CCOCC3)C2)cccc1C(F)(F)F [Example 56, 1,1,1,3,3,3-Hexafluoropropan-2-yl 2-(2-(8-oxa-2-azaspiro[4.5]decan-2-yl)-6-(trifluoromethyl)benzyl)-3,3-dimethyl-2,8-diazaspiro[4.5]decane-8-carboxylate] | < 25% | > 1 µM | 25 to 75% | 0.1 to 1 µM | < 25% | > 1 µM
2 | CC1(C)CC2(CCN(C(=O)OC(C(F)(F)F)C(F)(F)F)CC2)CN1Cc1c(N2CC3COCC3C2)cccc1C(F)(F)F (stereo not drawn) [Example 57, 1,1,1,3,3,3-Hexafluoropropan-2-yl 3,3-dimethyl-2-(2-(tetrahydro-1H-furo[3,4-c]pyrrol-5(3H)-yl)-6-(trifluoromethyl)benzyl)-2,8-diazaspiro[4.5]decane-8-carboxylate] | < 25% | > 1 µM | > 75% |  | < 25% | > 1 µM
3 | O=C(OC(C(F)(F)F)C(F)(F)F)N1CCC2(CCN(Cc3cccc(N4CCCC4)c3)C2)CC1 [Example 58, 1,1,1,3,3,3-Hexafluoropropan-2-yl 2-(3-(pyrrolidin-1-yl)benzyl)-2,8-diazaspiro[4.5]decane-8-carboxylate] | < 25% | > 1 µM | > 75% | 0.1 to 1 µM | ≥ 75% | 0.1 to 1 µM
4 | O=C(OC(C(F)(F)F)C(F)(F)F)N1CCC2(CCN(Cc3c(N4CCCC4)cccc3C(F)(F)F)C2)CC1 [Example 59, 1,1,1,3,3,3-Hexafluoropropan-2-yl 2-(2-(pyrrolidin-1-yl)-6-(trifluoromethyl)benzyl)-2,8-diazaspiro[4.5]decane-8-carboxylate] | < 25% | > 1 µM | > 75% | 0.1 to 1 µM | < 25% | > 1 µM
5 | O=C(OC(C(F)(F)F)C(F)(F)F)N1CCC2(CCCN2Cc2ccccc2)CC1 [Example 63, 1,1,1,3,3,3-Hexafluoropropan-2-yl 1-benzyl-1,8-diazaspiro[4.5]decane-8-carboxylate] | < 25% | > 1 µM | > 75% |  | < 25% | > 1 µM
6 | O=C(OC(C(F)(F)F)C(F)(F)F)N1CCC2(CCCN2Cc2cccc(N3CCOCC3)c2)CC1 [Example 69, 1,1,1,3,3,3-Hexafluoropropan-2-yl 1-(3-morpholinobenzyl)-1,8-diazaspiro[4.5]decane-8-carboxylate] | < 25% |  | > 75% |  | < 25% | > 1 µM
7 | CC(=O)N1CCCc2cccc(CN3CCC4(CCN(C(=O)OC(C(F)(F)F)C(F)(F)F)CC4)C3)c21 [Example 70, 1,1,1,3,3,3-Hexafluoropropan-2-yl 2-((1-acetyl-1,2,3,4-tetrahydroquinolin-8-yl)methyl)-2,8-diazaspiro[4.5]decane-8-carboxylate] | < 25% |  | > 75% |  | ≥ 75% | 0.1 to 1 µM
8 | Cc1c(CN2CCCC23CCN(C(=O)OC(C(F)(F)F)C(F)(F)F)CC3)cccc1N1CCOCC1 [Example 83, 1,1,1,3,3,3-Hexafluoropropan-2-yl 1-(2-methyl-3-morpholinobenzyl)-1,8-diazaspiro[4.5]decane-8-carboxylate] | < 25% | > 1 µM | > 75% | < 0.1 µM | < 25% | > 1 µM
9 | O=C(OC(C(F)(F)F)C(F)(F)F)N1CCC2(CCCN2Cc2ccc(C(F)(F)F)cc2N2CCS(=O)(=O)CC2)CC1 [Example 92, 1,1,1,3,3,3-Hexafluoropropan-2-yl 1-(2-(1,1-dioxidothiomorpholino)-4-(trifluoromethyl)benzyl)-1,8-diazaspiro[4.5]decane-8-carboxylate] | < 25% | > 1 µM | > 75% | < 0.1 µM | ≥ 75% | 0.1 to 1 µM
10 | O=C(OC(C(F)(F)F)C(F)(F)F)N1CCC2(CCCN2Cc2ccc(C(F)(F)F)cc2N2CCCCCC2)CC1 [Example 95, 1,1,1,3,3,3-Hexafluoropropan-2-yl 1-(2-(azepan-1-yl)-4-(trifluoromethyl)benzyl)-1,8-diazaspiro[4.5]decane-8-carboxylate] | < 25% | > 1 µM | 25 to 75% | 0.1 to 1 µM | < 25% | > 1 µM
11 | CCN1CCN(c2cc(Cl)ccc2CN2CCCC23CCN(C(=O)OC(C(F)(F)F)C(F)(F)F)CC3)CC1 [Example 98, 1,1,1,3,3,3-Hexafluoropropan-2-yl 1-(4-chloro-2-(4-ethylpiperazin-1-yl)benzyl)-1,8-diazaspiro[4.5]decane-8-carboxylate] | < 25% | > 1 µM | > 75% | 0.1 to 1 µM | < 25% | > 1 µM
12 | O=C(OC(C(F)(F)F)C(F)(F)F)N1CCC2(CCCN2Cc2ccc(Cl)cc2N2CCS(=O)(=O)CC2)CC1 [Example 103, 1,1,1,3,3,3-Hexafluoropropan-2-yl 1-(4-chloro-2-(1,1-dioxidothiomorpholino)benzyl)-1,8-diazaspiro[4.5]decane-8-carboxylate] | < 25% | > 1 µM | > 75% | 0.1 to 1 µM | ≥ 75% | 0.1 to 1 µM
13 | O=C(OC(C(F)(F)F)C(F)(F)F)N1CCC2(CCCN2Cc2ccc(Cl)cc2N2CCCCCC2)CC1 [Example 106, 1,1,1,3,3,3-Hexafluoropropan-2-yl 1-(2-(azepan-1-yl)-4-chlorobenzyl)-1,8-diazaspiro[4.5]decane-8-carboxylate] | < 25% | > 1 µM | > 75% | 0.1 to 1 µM | < 25% | > 1 µM
14 | O=C(OC(C(F)(F)F)C(F)(F)F)N1CCC2(CCCN2Cc2cccc(N3C4CCC3COC4)c2Cl)CC1 [Example 109, 1,1,1,3,3,3-Hexafluoropropan-2-yl 1-(3-(3-oxa-8-azabicyclo[3.2.1]octan-8-yl)-2-chlorobenzyl)-1,8-diazaspiro[4.5]decane-8-carboxylate] | < 25% | > 1 µM | > 75% | < 0.1 µM | < 25% | > 1 µM
15 | O=C(OC(C(F)(F)F)C(F)(F)F)N1CCC2(CCCN2Cc2cccc(N3CCC(F)CC3)c2Cl)CC1 [Example 110, 1,1,1,3,3,3-Hexafluoropropan-2-yl 1-(2-chloro-3-(4-fluoropiperidin-1-yl)benzyl)-1,8-diazaspiro[4.5]decane-8-carboxylate] | < 25% | > 1 µM | > 75% | < 0.1 µM | < 25% | > 1 µM
16 | O=C(OC(C(F)(F)F)C(F)(F)F)N1CCC2(CCCN2Cc2cccc(N3CCC(F)(F)CC3)c2Cl)CC1 [Example 111, 1,1,1,3,3,3-Hexafluoropropan-2-yl 1-(2-chloro-3-(4,4-difluoropiperidin-1-yl)benzyl)-1,8-diazaspiro[4.5]decane-8-carboxylate] | < 25% | > 1 µM | > 75% | < 0.1 µM | < 25% | > 1 µM
